Data on 2 compounds can be found in US20250136617A1 (The Regents of the University of Colorado, A Body Corporate, priority 2022, published 2025).

In experiment [1] the target is CXCR4 (Homo sapiens, UniProt P61073). The experiment is described as follows: Tag-Lite CXCR4 binding assay (displacement of fluorescent SDF-1α). The procedure:
Binding activity was measured using the Cisbio Tag-Lite Chemokine CXCR4 system (CisBio, Bedford, MA). […] Following three-hour incubation, HTRF measurements were taken using the BMG LABTECH CLARIOstar Plus (BMG LABTECH Inc., Cary, NC) with emission signals set to the Cisbio Tag-Lite Binding Assay supplier guidelines. HTRF ratio calculations completed according to supplier guidelines.

The test system of experiment [2] is diabetic wounds in Db mice. The experiment is described as follows: Angiogenesis in diabetic wounds, CD31 immunohistochemistry at 7 days. In kind it is in vivo. The procedure:
The ability of compound UCUF-728 to improve diabetic wound healing in vivo was examined. Full-thickness excisional 8 mm wounds were created in Db mice and were immediately treated with 10 μM UCUF-728 or phosphate-buffered saline (PBS) control. Wound healing over the course of 22 days was monitored. Initial wound size was calculated immediately after wounding, and wound closure was assessed over time as the percentage of initial wound area. […] The effect of UCUF-728 treatment on angiogenesis was assessed using immunohistochemistry for endothelial marker CD31. Representative photos of immunoperoxidase staining for CD31 at 7 days in diabetic wounds treated with PBS or UCUF-728 are shown in FIG. 8A.
All animal experiments were approved by the Institutional Animal Care and Use Committee at the University of Colorado Denver—Anschutz Medical Campus, and experimental protocols followed the guidelines described in the NIH Guide for the Care and Use of Laboratory Animals. […] Mice pictures were taken every other day, wound size was analyzed by Image J. A full-thickness skin sample, centered on the wound, was harvested 3 and 7 days after surgery (n=5 per timepoint).
The effect of UCUF-965 treatment on angiogenesis was assessed using immunohistochemistry for the endothelial marker CD31. […] Quantification of the staining was obtained.

In experiment [3] the test system is miR-29a. Description: qPCR of miR-29a expression in human dermal fibroblasts. It counts as cell-based. As to conditions: 24 hours, 0.1, 1 and 10 uM. The procedure: An additional secondary screen was performed to further validate activity of UCUF-728 as a selective CXCR4 receptor modulator. Human diabetic and non-diabetic fibroblasts were cultured with increasing concentrations of the compound. The cells were incubated for 24 hours and then total cellular RNA was isolated to examine the ability of the compound to correct the abnormal expression of miR15b, and miR29a. It has been shown that human diabetic skin has increased miR-15b expression at baseline compared to non-diabetic skin (Xu et al. “The role of microRNA-15b in the impaired angiogenesis in diabetic wounds.” Wound Repair Regen 2014; 22(5):671-7).
Diabetic and non-diabetic fibroblasts were cultured with increasing concentrations of a UCUF-965 compound. The cells were incubated for 24 hours and then total cellular RNA was isolated to examine the ability of the compound to correct the abnormal expression of miR15b, and miR29a. Angiogenesis is regulated by hypoxia and the production of growth factors such as Hypoxia-inducible Factor 1-alpha (HIF-1a) and Vascular Endothelial Growth Factor (VEGF). […] MicroRNA-15b (miR-15b) has been described as a key negative modulator of angiogenesis. Under hypoxia, miR-15b is repressed, resulting in an increased level of VEGF. Over-expression of miR-15b also markedly attenuates hypoxia induced vessel tube formation and cell migration. […]

“Also recorded” adds a separate entry of the source.

CXCR4, sequence (P61073 whole entry): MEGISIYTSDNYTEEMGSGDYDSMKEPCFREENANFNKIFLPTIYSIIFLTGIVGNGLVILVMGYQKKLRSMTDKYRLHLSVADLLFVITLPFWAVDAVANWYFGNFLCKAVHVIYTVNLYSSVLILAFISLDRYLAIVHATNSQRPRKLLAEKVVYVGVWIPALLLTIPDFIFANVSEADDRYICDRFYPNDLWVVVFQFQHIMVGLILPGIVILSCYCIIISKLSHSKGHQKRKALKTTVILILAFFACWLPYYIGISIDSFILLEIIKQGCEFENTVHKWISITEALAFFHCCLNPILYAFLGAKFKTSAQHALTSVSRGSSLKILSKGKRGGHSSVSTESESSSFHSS

Turning to `COc1ccc(OC)c(NS(=O)(=O)c2ccc(-c3cnc(C4CC4)o3)cc2)c1` [Oxazole Entry 19, 4-(2-Cyclopropyloxazol-5-yl)-N-(2,5-dimethoxyphenyl)benzenesulfonamide], the “displacement of SDF-1α binding” value in experiment [1] (listed as UCUF-728) is “did not displace SDF-1α binding; also recorded: did not displace SDF-1a saturation binding”. Further, the “number of vessels (CD31 staining) vs PBS” value in experiment [2] (listed as UCUF-728) was “significant increase in the number of vessels; also recorded: enhanced angiogenesis”. Moreover, the “miR-29a expression” value in experiment [3] (listed as UCUF-728) is “significant decrease in miR-29a expression level; also recorded: reduced miR-29a expression”.
As for `CCOc1ccccc1-c1nnc2n1N=C(c1ccc(N3CCCC3)cc1)CS2` [Thiadiazine Entry 23, 3-(2-ethoxyphenyl)-6-(4-(pyrrolidin-1-yl)phenyl)-7H-[1,2,4]triazolo[3,4-b][1,3,4]thiadiazine], the “displacement of SDF-1α binding” value in experiment [1] (listed as UCUF-965) was “did not displace fluorescently labelled SDF-1α binding; also recorded: did not displace SDF-1α saturation binding; also recorded: did not competitively displace”. For the same compound, the “number of vessels (CD31 staining) vs PBS” value in experiment [2] (listed as UCUF-965) was “enhanced angiogenesis markers; also recorded: significantly increased the number of vessels”. The “miR-29a expression” value in experiment [3] (listed as UCUF-965) was “significant decrease in miR-29a; also recorded: decreased”.
